From patent US20240025919A1, “AZA-TETRACYCLIC OXAZEPINE COMPOUNDS AND USES THEREOF” (Genentech, Inc., priority 2022, published 2024)
Where two headings read alike, the source gives them in different places.

Experiments:
[1] = molecular target: KRAS G12D (Homo sapiens (Human), UniProt P01116, G12D); assay: KRAS G12D LoEnz Biochemical Assay, BODIPY-GDP Exchange TR-FRET (SOS1-mediated nucleotide exchange); conditions: read-out: KRas (G12D) GDP HTRF IC50
[2] = molecular target: T1, KRAS WT (Homo sapiens (Human), UniProt P01116); assay: KRAS WT Biochemical Assay, BODIPY-GDP Exchange TR-FRET (Example 502; 0.06 nM KRAS WT, 15 nM GDP, 300 nM SOS1, 120-minute incubation); conditions: read-out: KRas HTRF IC50
How it was run: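 IC50 from a 4-parameter Hill fit of percent inhibition, itself the TR-FRET 520/490 nm ratio scaled between DMSO and a fully inhibiting control. Reaction: 300 nM SOS1 and 300 nM BODIPY-GDP added to preformed 0.06 nM KRAS WT/15 nM GDP/Tb-streptavidin complex; 120 min incubation; pH 7.5 HEPES, MgCl2, DTT.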

[3] = test system: HPAC (homozygous mutant KRAS G12D human pancreatic cell line); assay: KRAS 3D-Cell Proliferation Assay, HPAC (CellTiter-Glo 3D, 7 days); assay type: cell-based; conditions: HPAC 3D culture, read-out: Prolif HPAC 3D ATP IC50
Method: (§1) Example 503: KRAS 3D-Cell Proliferation Assays. Cellular potencies of compounds are assessed by evaluating inhibition of proliferation in 3D cultures of homozygous mutant KRAS G12D human pancreatic cell lines (AsPC-1 and HPAC) as compared to a KRAS wild type human lung adenocarcinoma cell line (PC-9 and/or H1975). Cells are seeded into 384-well black round-bottom, ultra-low attachment assay plates in 50 uL cell growth medium (RPMI-1640 with 10% fetal bovine serum and 2 mM L-glutamine). After overnight incubation at 37° C. and 5% CO2, compounds solubilized in DMSO are added as dilution series to the wells in a total volume of 150 nL (0.3% DMSO final). The cells are incubated for 7 days at 37° C. and 5% CO2. Cell proliferation is quantitated by addition of 40 uL/well of CellTiter-GloO 3D (Promega), and the well contents are mixed 20× at high speed using liquid handling automation workstation (Bravo with 384-well head) and centrifuged at 1500 rpm for 2 minutes to eliminate bubbles. This reagent in combination with mechanical disruption releases the cellular ATP to promote activity in a luciferase-based enzyme/substrate chemiluminescent detection system. After a 30-minute incubation under ambient conditions with shaking and an additional 10 minutes without shaking, the luminescence is read on a plate reader (e.g. EnVision [PerkinElmer]). The results are normalized to percent inhibition based on the following control samples: DMSO (0% inhibition) and 1 uM staurosporine (100% inhibition). The normalized luminescence results are plotted against compound concentration, and the data are fit to a 4-parameter Hill equation to determine the IC50 values.

[4] = test system: H1975 (KRAS wild type human lung adenocarcinoma cell line); assay: KRAS 3D-Cell Proliferation Assay, H1975 (CellTiter-Glo 3D, 7 days); assay type: cell-based; conditions: H1975 3D culture, read-out: Prolif H1975 3D ATP IC50
Method: as §1

[5] = molecular target: T1, KRAS WT; assay: KRAS WT Biochemical Assay, BODIPY-GDP Exchange TR-FRET (Example 501; 3 nM KRAS WT, 3 nM SOS1, 60-minute incubation); conditions: read-out: KRas HTRF IC50
How it was run: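 SOS1-mediated exchange assay: 3 nM biotin-KRAS WT with terbium-streptavidin, started with 3 nM SOS1 and 300 nM BODIPY-GDP, HEPES pH 7.5 with MgCl2. TR-FRET (520/490 nm) read after 60 min; normalized to DMSO and full-inhibition control, IC50 from 4-parameter Hill fit.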

Chain of KRAS G12D (P01116-2 other isoform, or with tags, fused parts or gaps G12D): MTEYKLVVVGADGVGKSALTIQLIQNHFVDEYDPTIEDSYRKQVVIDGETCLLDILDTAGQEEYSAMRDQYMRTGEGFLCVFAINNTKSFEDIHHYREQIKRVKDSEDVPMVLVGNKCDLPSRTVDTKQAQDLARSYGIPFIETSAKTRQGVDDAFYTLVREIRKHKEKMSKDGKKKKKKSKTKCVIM
T1 sequence (P01116-2 other isoform, or with tags, fused parts or gaps): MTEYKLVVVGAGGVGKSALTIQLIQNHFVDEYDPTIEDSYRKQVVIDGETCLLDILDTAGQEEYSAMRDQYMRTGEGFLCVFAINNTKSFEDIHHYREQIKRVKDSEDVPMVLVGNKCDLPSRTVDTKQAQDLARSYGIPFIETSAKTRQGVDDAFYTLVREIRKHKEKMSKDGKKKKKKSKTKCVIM

| SMILES | IC50 [1] [nM] | IC50 [2] [nM] | IC50 ([3]; Homo sapiens, HPAC, 168 h) [nM] | IC50 ([4]; Homo sapiens, NCI-H1975, 168 h) [nM] | IC50 [3] [nM] | IC50 [4] [nM] | IC50 [5] [nM] |
| --- | --- | --- | --- | --- | --- | --- | --- |
| Cc1c(F)c(N)cc(-c2nc3c4c(nc(OC[C@@H]5COC[C@H]6CCCN65)nc4c2F)N2C[C@H]4CC[C@H](N4)[C@H]2[C@H](C)O3)c1C(F)(F)F (single isomer, unassigned) [121 (isomer 2)] | 0.27 | 49.3 | 17.5 | 533 | – | – | – |
| Cc1c(F)c(N)cc(-c2nc3c4c(nc(OC[C@@]56CCC[C@@H]5N(C)CCC6)nc4c2F)N2C[C@H]4CC[C@H](N4)[C@H]2[C@H](C)O3)c1C(F)(F)F (single isomer, unassigned) [126 (isomer 2)] | 0.09 | 8.08 | 5.15 | 1770 | – | – | – |
| Cc1c(F)c(N)cc(-c2nc3c4c(nc(OC[C@@]56CCC[C@H]5N(C)CCC6)nc4c2F)N2C[C@H]4CC[C@H](N4)[C@H]2[C@H](C)O3)c1C(F)(F)F (single isomer, unassigned) [126 (isomer 3)] | 0.09 | 6.31 | 3.28 | 1430 | – | – | – |
| Cc1c(F)c(N)cc(-c2nc3c4c(nc(OC[C@]56CCC[C@H]5N(C)CCC6)nc4c2F)N2C[C@H]4CC[C@H](N4)[C@H]2[C@H](C)O3)c1C(F)(F)F (single isomer, unassigned) [126 (isomer 4)] | 0.37 | 90.3 | 24.9 | 2250 | – | – | – |
| Cc1c(F)c(N)cc(-c2nc3c4c(nc(OC[C@@]56CCCN5[C@@H](C(F)F)CC6)nc4c2F)N2C[C@H]4CC[C@H](N4)[C@H]2[C@H](C)O3)c1C(F)(F)F (single isomer, unassigned) [130 (isomer 1)] | 2.26 | 460 | – | 2830 | 44.7 | – | – |
| Cc1c(F)c(N)cc(-c2nc3c4c(nc(OC[C@@]56CCCN5[C@@H](C(F)F)CC6)nc4c2F)N2C[C@H]4CC[C@H](N4)[C@H]2[C@H](C)O3)c1C(F)(F)F (single isomer, unassigned) [130 (isomer 2)] | 0.92 | 174 | – | – | 15.8 | 2900 | – |
| Cc1c(F)c(N)cc(-c2nc3c4c(nc(OC[C@H]5CC[C@@H]6CN(C)C(=O)CN56)nc4c2F)N2C[C@H]4CC[C@H](N4)[C@H]2[C@H](C)O3)c1C(F)(F)F (single isomer, unassigned) [131 (isomer 1)] | 13.9 | 2530 | – | – | 1430 | 20000 | – |
| Cc1c(F)c(N)cc(-c2nc3c4c(nc(OC[C@H]5CC[C@@H]6CN(C)C(=O)CN56)nc4c2F)N2C[C@H]4CC[C@H](N4)[C@H]2[C@H](C)O3)c1C(F)(F)F (single isomer, unassigned) [131 (isomer 2)] | 1.31 | 293 | – | – | 342 | 20000 | – |
| Cc1c(F)c(N)cc(-c2nc3c4c(nc(OC[C@H]5CC[C@@H]6CN(C)C(=O)CN56)nc4c2F)N2C[C@H]4CC[C@H](N4)[C@H]2[C@H](C)O3)c1C(F)(F)F (single isomer, unassigned) [131 (isomer 3)] | 2.07 | 249 | – | – | 77.4 | 8850 | – |
| Cc1c(F)c(N)cc(-c2nc3c4c(nc(OC[C@@H]5CCC6C[C@@H](C(=O)N(C)C)CCN65)nc4c2F)N2C[C@H]4CC[C@H](N4)[C@H]2[C@H](C)O3)c1C(F)(F)F (single isomer, unassigned) [133 (isomer 2)] | 0.15 | 14.4 | 22.4 | 1600 | – | – | – |
| Cc1c(F)c(N)cc(-c2nc3c4c(nc(OCC56CCCN5CCN(C)C6=O)nc4c2F)N2C[C@H]4CC[C@H](N4)[C@H]2[C@H](C)O3)c1C(F)(F)F (single isomer, unassigned) [137 (isomer 2)] | 2.34 | 454 | 193 | 20000 | – | – | – |
| Cc1c(F)c(N)cc(-c2nc3c4c(nc(OC[C@@]56CCCN5C[C@H](F)C6)nc4c2F)N2CCN[C@@H](C)[C@H]2[C@H](C)O3)c1C(F)(F)F (single isomer, unassigned) [234 (isomer 1)] | 1330 | – | 2000 | 8570 | – | – | 23300 |
| Cc1c(F)c(N)cc(-c2nc3c4c(nc(OC[C@@]56CCCN5C[C@H](F)C6)nc4c2F)N2CCN[C@@H](C)[C@H]2[C@@H](C)O3)c1C(F)(F)F (single isomer, unassigned) [234 (isomer 2)] | 209 | – | 2000 | 9750 | – | – | 513 |
| Cc1c(F)c(N)cc(-c2nc3c4c(nc(OC[C@@]56CCCN5C[C@H](F)C6)nc4c2F)N2CCN[C@H](C)[C@@H]2[C@H](C)O3)c1C(F)(F)F (single isomer, unassigned) [234 (isomer 3)] | 4810 | – | 2000 | 16600 | – | – | 4570 |
| Cc1c(F)c(N)cc(-c2nc3c4c(nc(OC[C@@]56CCCN5C[C@H](F)C6)nc4c2F)N2CCN[C@H](C)[C@@H]2[C@@H](C)O3)c1C(F)(F)F (single isomer, unassigned) [234 (isomer 4)] | 589 | – | 2000 | 8500 | – | – | 510 |
| Cc1c(F)c(N)cc(-c2nc3c4c(nc(OC[C@@]56CCCN5C[C@H](F)C6)nc4c2F)N2C[C@H]4CC[C@H](N4)[C@H]2[C@@H](C(F)F)O3)c1C(F)(F)F (single isomer, unassigned) [238 (isomer 2)] | 13000 | – | 2000 | 20000 | – | – | 4800 |
| Cc1nc(N)cc(-c2nc3c4c(nc(OC[C@H]5N(C)C[C@]56CC6(F)F)nc4c2F)N2C[C@H]4CC[C@H](N4)[C@H]2[C@H](C(F)(F)F)O3)c1C(F)(F)F (single isomer, unassigned) [262 (isomer 1)] | 31.9 | – | 475 | 20000 | – | – | 668 |
| Cc1nc(N)cc(-c2nc3c4c(nc(OCC5N(C)C[C@]56CC6(F)F)nc4c2F)N2C[C@H]4CC[C@H](N4)[C@H]2[C@H](C(F)(F)F)O3)c1C(F)(F)F (single isomer, unassigned) [262 (isomer 3)] | 41.1 | – | 971 | 20000 | – | – | 1080 |
| Cc1nc(N)cc(-c2nc3c4c(nc(OCC5N(C)CC56CC6(F)F)nc4c2F)N2C[C@H]4CC[C@H](N4)[C@H]2[C@H](C(F)(F)F)O3)c1C(F)(F)F (single isomer, unassigned) [262 (isomer 4)] | 1.14 | – | 43.4 | 4380 | – | – | 35.1 |
| Cc1c(F)c(N)cc(-c2nc3c4c(nc(OC[C@@]56CCN5CC(F)(F)C6)nc4c2F)N2C[C@H]4CC[C@H](N4)[C@H]2[C@H](C(F)(F)F)O3)c1C(F)(F)F (single isomer, unassigned) [263 (diast. 1)] | 0.26 | – | 6.14 | 789 | – | – | 5.49 |
| Cc1c(F)c(N)cc(-c2nc3c4c(nc(OCC56CCN5CC(F)(F)C6)nc4c2F)N2C[C@H]4CC[C@H](N4)[C@H]2[C@H](C(F)(F)F)O3)c1C(F)(F)F (single isomer, unassigned) [263 (diast. 2)] | 0.53 | – | 15.4 | 336 | – | – | 15.4 |
| Cc1cc(N)c(F)c(-c2nc3c4c(ncnc4c2Cl)N2C[C@H]4CC[C@H](N4)[C@H]2[C@H](C)O3)c1C(F)(F)F (single isomer, unassigned) [Compound 95] | – | 3570 | – | – | 247 | 6700 | – |
| Cc1cc(N)c(Cl)c(-c2nc3c4c(nc(OC[C@@]56CCCN5C[C@H](F)C6)nc4c2Cl)N2C[C@H]4CC[C@H](N4)[C@H]2[C@H](C)O3)c1C(F)(F)F (single isomer, unassigned) [Compound 240 (atrop. 1)] | 44.9 | – | – | – | 594 | 6480 | 1080 |
| Cc1cc(N)c(Cl)c(-c2nc3c4c(nc(OC[C@@]56CCCN5C[C@H](F)C6)nc4c2Cl)N2C[C@H]4CC[C@H](N4)[C@H]2[C@H](C)O3)c1C(F)(F)F (single isomer, unassigned) [Compound 240 (atrop. 2)] | 0.14 | – | – | – | 1.88 | 1060 | 15.1 |
